Results as given in patent publication US20230250292A1, “AROMATIC HYDROCARBON-SOLUBLE ANTHRAQUINONE” (Dow Global Technologies LLC, priority 2020, published 2023).

Columns and labels:
[1] = Maximum (initial) soluble concentration in Aromatic 200 solvent by UV/vis; assay type: physicochemical; conditions: for Measured Initial Concentration: Aromatic 200 (ATOSOL 200ND), targeted 10 wt% solution, filtered, diluted in xylenes, UV/vis against 0.5 and 1.7 wt% calibration
Description: For each Example, a calibration line is generated by preparing 0.5 and 1.7 wt% solutions of each Example using a batch of Aromatic 200 supplied from TOTAL, identified as ATOSOL 200ND, and measuring the UV/vis absorbance at these known concentrations. The solutions are heated to 60° C. with stirring overnight and allowed to cool to ambient temperature for at least several hours, preferably overnight. For the 0.5 and 1.7 wt% solutions for each marker, UV/vis measurements are prepared by diluting an aliquot of each solution (exact weight recorded) into a known amount of xylenes to target an absorbance value below approximately 2.5. […] For other Examples, several drops of the targeted 10 wt% solution are filtered and a known amount of the filtrate is diluted with a known amount of xylenes to target an absorbance value below approximately 2.5. The initial concentration is determined by measuring the absorbance value of a known concentration of the filtered and diluted aliquot taken from the targeted 10 wt% solution. The expected UV/vis absorbance value of the aliquot is calculated based on the calibration standards, and this value is compared against the actual measured absorbance value. Measured values below the expected value indicate the marker is not fully soluble at this 10 wt% concentration.

[2] = Storage stability in Aromatic 200 solvent at -10° C.; assay type: physicochemical; conditions: -10° C. freezer
Description: Storage stability experiments of Examples 1-3 as well as Comparative Examples 4 and 5 as well as Comparative Example 6 (a 50:50 molar physical blend of Comparative Examples 4 and 5) are conducted as follows. For each Example, a calibration line is generated by preparing 0.5 and 1.7 wt% solutions of each Example using a batch of Aromatic 200 supplied from TOTAL, identified as ATOSOL 200ND, and measuring the UV/vis absorbance at these known concentrations. The solutions are heated to 60° C. with stirring overnight and allowed to cool to ambient temperature for at least several hours, preferably overnight. For the 0.5 and 1.7 wt% solutions for each marker, UV/vis measurements are prepared by diluting an aliquot of each solution (exact weight recorded) into a known amount of xylenes to target an absorbance value below approximately 2.5. […] For other Examples, several drops of the targeted 10 wt% solution are filtered and a known amount of the filtrate is diluted with a known amount of xylenes to target an absorbance value below approximately 2.5. The initial concentration is determined by measuring the absorbance value of a known concentration of the filtered and diluted aliquot taken from the targeted 10 wt% solution. The expected UV/vis absorbance value of the aliquot is calculated based on the calibration standards, and this value is compared against the actual measured absorbance value. […]

Structure (SMILES) | Solubility of calibration solution in Aromatic 200 (solids observed) ([1]; 1.7 wt% solution in Aromatic 200, heated to 60° C. overnight, cooled to ambient) | Measured Initial Concentration [1] | Storage stability: Concentration after storage at -10° C., 4 days [2]
Cc1ccc(Nc2ccc(Nc3ccc(C)cc3)c3c2C(=O)c2c(Nc4ccc(C)cc4)ccc(Nc4ccc(C)cc4)c2C3=O)cc1 [Comparative Example 5, 1,4,5,8-tetrakis(4-methylaniline)anthracene-9,10-dione] | solids are observed at 1.7 wt% | Solids observed at 1.7%, no measurement | –
CCCCc1ccc(Nc2ccc(Nc3ccc(CCCC)cc3)c3c2C(=O)c2c(Nc4ccc(CCCC)cc4)ccc(Nc4ccc(CCCC)cc4)c2C3=O)cc1 [Comparative Example 4, 1,4,5,8-tetrakis(4-(n-butyl)phenylamino)anthracene-9,10-dione] | – | 7.0 wt% | 4.2 wt%
